Assay results reported in ChEMBL document CHEMBL1201862, “PubChem BioAssay data set” (2004).
Activity calls are given as the source filed them.

Columns and labels:
[1] = HIV-1 AD8 envelope cell-cell fusion blockers – cherry-pick, dose response (AID 652062); format: functional, cell-based;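 note: luciferase signal from cell-cell fusion driven by HIV-1 clade B AD8 Env; potency is for inhibitors of fusion seen as a drop in luminescence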
[2] = blockers of HIV-1 ZM109 envelope-driven cell-cell fusion – HeLa effector, CEM target cells, luciferase, cherry-pick, dose response (AID 652058); format: functional, cell-based;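 note: luciferase signal from HIV-1 Env mediated cell-cell fusion of effector and target cells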
[3] = off-target signal loss in HeLa-CEM21 co-culture – HeLa F-luc CTL cells, cherry-picked, counter-screen for HIV-1 Env fusion inhibitor project, dose response (AID 652040); format: functional, cell-based;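 note: potency for signal decrease marking cytotoxic or nonspecific inhibition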
[4] = blockers of HIV-1 envelope-mediated cell-cell fusion – cherry-pick, dose response (AID 652057); format: functional, cell-based
Paired box protein Pax-8 = Paired box protein Pax-8 (Homo sapiens, UniProt Q06710); test: PAX8 transcriptional activity inhibition in RMG-I – RMG-I cells, luciferase, cherry-pick, dose response (AID 687027); format: functional, cell-based;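 note: luciferase reporter driven by Pax8 target thyroperoxidase promoter measured by SteadyGlo luminescence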
[5] = general cell-killing toxicity readout – plate reader, dry powder samples, cytotoxicity control for PAX8 inhibitor project, dose response (AID 743021); format: functional, cell-based
Caspase-3 = molecular target: T1, Caspase-3 (Homo sapiens, UniProt P42574); format: functional;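 note: Dose-response selectivity test against caspase-3 for candidate inhibitors of sentrin-specific proteases (SENPs)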
T1 sequence (P42574 whole entry): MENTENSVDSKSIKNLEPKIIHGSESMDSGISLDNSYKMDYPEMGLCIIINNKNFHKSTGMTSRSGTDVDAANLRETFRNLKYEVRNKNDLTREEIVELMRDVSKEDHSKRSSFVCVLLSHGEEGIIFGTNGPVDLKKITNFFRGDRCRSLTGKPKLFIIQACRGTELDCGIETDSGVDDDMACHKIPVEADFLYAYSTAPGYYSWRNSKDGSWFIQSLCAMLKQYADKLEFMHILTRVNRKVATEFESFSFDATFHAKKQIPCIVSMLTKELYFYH

[6] = molecular target: T2, Sentrin-specific protease 7 (Homo sapiens, UniProt Q9BQF6); format: functional;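 note: Luminescence-based dose-response confirmation of ultra-high-throughput screening hits, measuring inhibition of SENP7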
T2 sequence (Q9BQF6 whole entry): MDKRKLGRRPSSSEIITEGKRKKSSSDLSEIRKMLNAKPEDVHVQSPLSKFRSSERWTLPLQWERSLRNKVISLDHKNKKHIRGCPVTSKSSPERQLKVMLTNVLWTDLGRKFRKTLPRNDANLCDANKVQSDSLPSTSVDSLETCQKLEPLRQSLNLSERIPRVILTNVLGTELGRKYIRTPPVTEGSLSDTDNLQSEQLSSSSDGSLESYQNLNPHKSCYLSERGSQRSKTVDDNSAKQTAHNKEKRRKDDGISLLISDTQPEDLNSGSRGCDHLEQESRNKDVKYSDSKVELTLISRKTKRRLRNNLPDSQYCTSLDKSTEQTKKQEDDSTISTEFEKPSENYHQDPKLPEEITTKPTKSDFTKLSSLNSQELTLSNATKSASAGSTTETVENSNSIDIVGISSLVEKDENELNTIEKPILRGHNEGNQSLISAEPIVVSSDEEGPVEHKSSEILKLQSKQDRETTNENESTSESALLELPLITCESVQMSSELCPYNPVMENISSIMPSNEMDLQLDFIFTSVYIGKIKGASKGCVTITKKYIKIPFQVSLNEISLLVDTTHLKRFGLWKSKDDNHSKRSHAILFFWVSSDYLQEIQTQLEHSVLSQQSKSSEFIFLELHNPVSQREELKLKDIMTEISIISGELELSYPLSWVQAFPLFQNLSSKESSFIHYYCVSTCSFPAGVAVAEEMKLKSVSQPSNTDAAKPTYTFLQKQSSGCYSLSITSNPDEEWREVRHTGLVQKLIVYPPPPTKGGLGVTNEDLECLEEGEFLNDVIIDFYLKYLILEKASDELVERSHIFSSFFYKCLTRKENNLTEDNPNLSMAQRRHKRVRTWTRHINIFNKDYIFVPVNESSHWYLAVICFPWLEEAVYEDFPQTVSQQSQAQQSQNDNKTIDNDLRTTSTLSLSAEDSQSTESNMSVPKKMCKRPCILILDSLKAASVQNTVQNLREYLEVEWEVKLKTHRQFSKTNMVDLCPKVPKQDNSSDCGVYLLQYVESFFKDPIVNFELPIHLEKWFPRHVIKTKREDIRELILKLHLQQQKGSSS

[7] = molecular target: T3, Sentrin-specific protease 6 (Homo sapiens, UniProt Q9GZR1); format: functional;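 note: Luminescence-based dose-response confirmatory assay of SENP6 inhibition, following up an ultra-high-throughput screen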
T3 sequence (Q9GZR1 whole entry): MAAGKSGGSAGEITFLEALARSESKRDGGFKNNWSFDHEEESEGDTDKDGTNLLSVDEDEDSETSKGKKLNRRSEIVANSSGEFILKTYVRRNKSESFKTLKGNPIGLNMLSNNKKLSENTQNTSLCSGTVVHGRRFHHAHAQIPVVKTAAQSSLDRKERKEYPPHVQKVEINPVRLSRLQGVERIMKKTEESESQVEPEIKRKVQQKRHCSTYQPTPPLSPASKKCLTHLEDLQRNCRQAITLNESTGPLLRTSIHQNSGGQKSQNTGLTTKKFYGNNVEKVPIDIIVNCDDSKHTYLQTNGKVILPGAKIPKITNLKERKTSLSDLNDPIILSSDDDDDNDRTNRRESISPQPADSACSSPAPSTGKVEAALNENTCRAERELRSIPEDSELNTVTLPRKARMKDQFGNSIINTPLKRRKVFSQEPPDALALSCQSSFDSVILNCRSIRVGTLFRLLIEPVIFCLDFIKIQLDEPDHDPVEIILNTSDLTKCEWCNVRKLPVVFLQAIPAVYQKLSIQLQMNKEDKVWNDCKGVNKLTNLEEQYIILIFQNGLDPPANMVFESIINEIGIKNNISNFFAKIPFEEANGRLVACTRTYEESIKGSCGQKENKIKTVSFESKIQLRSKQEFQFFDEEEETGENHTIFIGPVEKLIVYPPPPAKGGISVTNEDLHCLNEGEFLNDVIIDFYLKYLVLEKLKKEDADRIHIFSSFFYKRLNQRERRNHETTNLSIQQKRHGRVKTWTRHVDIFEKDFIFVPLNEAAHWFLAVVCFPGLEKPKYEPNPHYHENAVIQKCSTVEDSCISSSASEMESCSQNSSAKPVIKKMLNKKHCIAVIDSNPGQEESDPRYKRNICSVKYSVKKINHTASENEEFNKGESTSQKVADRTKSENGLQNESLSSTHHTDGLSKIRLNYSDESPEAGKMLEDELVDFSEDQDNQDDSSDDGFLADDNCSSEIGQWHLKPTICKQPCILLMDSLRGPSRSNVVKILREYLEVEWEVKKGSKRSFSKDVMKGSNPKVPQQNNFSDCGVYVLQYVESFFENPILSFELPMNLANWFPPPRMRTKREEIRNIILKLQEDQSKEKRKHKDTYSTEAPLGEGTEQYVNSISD

[8] = molecular target: T4, Sentrin-specific protease 8 (Homo sapiens, UniProt Q96LD8); format: functional;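 note: luminescence read-out of SENP8 inhibition, dose-response confirmation following an ultra-high-throughput screen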
T4 sequence (Q96LD8 whole entry): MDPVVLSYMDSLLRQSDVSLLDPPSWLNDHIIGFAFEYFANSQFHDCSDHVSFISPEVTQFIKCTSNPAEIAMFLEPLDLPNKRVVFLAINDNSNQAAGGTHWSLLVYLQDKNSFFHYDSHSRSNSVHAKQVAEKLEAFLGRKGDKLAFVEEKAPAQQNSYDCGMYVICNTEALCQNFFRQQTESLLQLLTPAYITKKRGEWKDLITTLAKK

Major prion protein = Major prion protein (Homo sapiens, UniProt P04156); format: functional, cell-based
[9] = molecular target: Peroxisome proliferator-activated receptor gamma/Nuclear receptor coactivator 2 (Homo sapiens, UniProt P37231); test: (§1) TR-FRET dose response biochemical High Throughput Screening assay for agonists of the steroid receptor coactivator 2 (SRC-2) recruitment by the peroxisome proliferator-activated receptor gamma (PPAR gamma): non-selective agonists. [Related pubchem assays: 1297, 1032 ]; format: functional
[10] = molecular target: Peroxisome proliferator-activated receptor gamma/Nuclear receptor coactivator 3 (Homo sapiens, UniProt P37231); test: as §1, with “3 (SRC-3)” for “2 (SRC-2)”, “1301 (Confirmation screen.), 1048 (Primary screen.)]” for “1297, 1032 ]”; format: functional
[11] = molecular target: Peroxisome proliferator-activated receptor gamma/Nuclear receptor coactivator 1 (Homo sapiens, UniProt P37231); test: as §1, with “1 (SRC-1)” for “2 (SRC-2)”, “assays (depositor defined):AID1300, AID1808, AID504735, AID631]” for “assays: 1297, 1032 ]”; format: protein assay
[12] = molecular target: T5, Apoptotic protease-activating factor 1 (Homo sapiens, UniProt O14727); format: functional
T5 sequence (O14727 whole entry): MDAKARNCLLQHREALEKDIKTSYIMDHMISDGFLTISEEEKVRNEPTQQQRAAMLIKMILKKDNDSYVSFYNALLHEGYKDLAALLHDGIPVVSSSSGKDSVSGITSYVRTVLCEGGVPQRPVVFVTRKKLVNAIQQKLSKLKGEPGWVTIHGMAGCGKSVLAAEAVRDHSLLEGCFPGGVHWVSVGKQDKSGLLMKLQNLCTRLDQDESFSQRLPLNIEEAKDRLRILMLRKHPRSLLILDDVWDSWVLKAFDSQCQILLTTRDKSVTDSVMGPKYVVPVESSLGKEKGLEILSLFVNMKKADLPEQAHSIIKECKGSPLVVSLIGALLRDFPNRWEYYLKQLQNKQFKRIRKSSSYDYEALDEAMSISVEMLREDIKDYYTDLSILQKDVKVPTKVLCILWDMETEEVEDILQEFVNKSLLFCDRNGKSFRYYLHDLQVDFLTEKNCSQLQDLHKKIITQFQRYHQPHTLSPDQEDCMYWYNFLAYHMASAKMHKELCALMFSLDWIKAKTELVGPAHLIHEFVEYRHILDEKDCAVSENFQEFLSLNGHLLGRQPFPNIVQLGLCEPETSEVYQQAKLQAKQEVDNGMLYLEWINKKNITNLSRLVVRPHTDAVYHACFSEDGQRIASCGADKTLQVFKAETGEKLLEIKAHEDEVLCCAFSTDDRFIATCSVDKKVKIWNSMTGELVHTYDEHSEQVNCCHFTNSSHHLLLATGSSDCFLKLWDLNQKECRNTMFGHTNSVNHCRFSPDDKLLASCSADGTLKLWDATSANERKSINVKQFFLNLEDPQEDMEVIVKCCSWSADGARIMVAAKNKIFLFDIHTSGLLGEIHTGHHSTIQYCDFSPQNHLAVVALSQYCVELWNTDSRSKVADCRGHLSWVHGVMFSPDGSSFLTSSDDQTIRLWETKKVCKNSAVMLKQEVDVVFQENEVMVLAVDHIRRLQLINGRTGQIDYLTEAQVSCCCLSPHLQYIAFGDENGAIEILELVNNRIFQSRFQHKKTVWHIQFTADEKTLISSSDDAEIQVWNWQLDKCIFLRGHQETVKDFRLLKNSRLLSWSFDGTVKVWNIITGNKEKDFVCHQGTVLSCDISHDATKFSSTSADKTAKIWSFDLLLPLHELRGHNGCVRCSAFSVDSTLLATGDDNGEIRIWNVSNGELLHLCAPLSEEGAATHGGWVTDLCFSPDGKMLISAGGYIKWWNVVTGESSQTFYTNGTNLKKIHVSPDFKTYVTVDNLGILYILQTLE

Compound: COc1cc(CNCc2ccc(OC)c3ccccc23)cc(OC)c1OC
- AC50 [1]: 51 µM (active)
- AC50 [2]: 31.8 µM (active)
- AC50 [3]: > 70 µM (inactive)
- AC50 [4]: 23.8 µM (active)

Compound: COc1cccc(N(C(=O)c2ccco2)c2nc(-c3sc(NC(=O)c4ccco4)nc3C)cs2)c1
- AC50 (Paired box protein Pax-8): 2.1 µM (active)
- AC50 [5]: 62 µM (active)

Compound: CCOC(=O)c1cc(-c2cc3ccccc3o2)[nH]n1
- IC50 (Caspase-3): 15.4 µM (active)
- IC50 [6]: 5.55 µM (active)
- IC50 [7]: 21.6 µM (active)
- IC50 [8]: 34.8 µM (active)

Compound: CCCCNC(=O)CSc1nc(CCC)nc2ccccc12
- IC50 (Major prion protein): 14.7 µM (inactive)
- EC50 [9]: > 79.4 µM (not active)
- EC50 [10]: > 79.4 µM (not active)
- IC50 (cells): > 138 µM (inactive)
- EC50 [11]: > 79.4 µM (inactive)

Compound: Clc1ccccc1OCc1nn2c(-c3ccncc3)nnc2s1
- IC50 [12]: 8.4 µM (active)

Compound: COc1ccc(Oc2ccc(/C=C/C(=O)c3cccc(OC)c3)cc2[N+](=O)[O-])cc1
- AC50 (Paired box protein Pax-8): 14.5 µM (active)
- AC50 [5]: 54.3 µM (active)

Compound: O=C(O)c1ccc(NC2=C(N3CCOCC3)C(=O)c3ccccc3C2=O)cc1
- IC50 [12]: 35.8 µM (active)

Compound: CC(C)CCN(C(=O)c1csnn1)C(C(=O)NC1CCCC1)c1ccc(F)cc1 (centres undefined)
- AC50 [1]: 5.93 µM (active)
- AC50 [2]: 7.51 µM (active)
- AC50 [3]: 5.56 µM (active)
- AC50 [4]: 4.72 µM (active)

Compound: COC(=O)C1=C(C)N(Cc2ccc(C(F)(F)F)cc2)C(NCc2ccccc2)=NC1c1cccc(Cl)c1 (centres undefined)
- AC50 (Paired box protein Pax-8): 12.3 µM (active)
- AC50 [5]: 20.9 µM (active)

Compound: CC(C)OCCCNC1=C(Cl)C(=O)c2ccccc2C1=O
- IC50 (Caspase-3): 6.38 µM (active)
- IC50 [6]: 19.4 µM (active)
- IC50 [7]: 8.48 µM (active)
- IC50 [8]: 25.7 µM (active)
